How the values were obtained:
[1] = tested on: GFPmut3 expression; assay: Demonstration of bistability of toggle and control plasmids; type: cell-based, E. coli strain JM2.300; details: for GFP EXPRESSION (bistable or monostable behaviour): Toggles, Type IV plasmids; for bistability: Type IV toggle plasmids with RBS1 sequences of varying efficiency
Excerpt: In order to test the limits of bistability of the toggle switch, the al parameter was varied experimentally by inserting RBS1 sequences of varying efficiency into pTAK (Class 1) and pIKE (Class 2) toggle switches of Type IV. Four pTAK series plasmids (Class 1) were constructed with RBS1 sequences D,F,G and H, and two pIKE series plasmids (Class 2) were constructed with RBS1 sequences A and C (Table 6).
The existence of bistability is illustrated in FIG. 12. In this experiment, the toggle and control plasmids were grown in E. coli strain JM2.300 for 23.5 hours. At 6, 11, 18 and 23.5 hours, samples were taken and cells were pelleted, washed once in LB or PBS, and diluted 500-1000 fold into fresh medium with or without inducers as appropriate. […] Cells were washed and diluted into fresh medium with no IPTG and grown an additional 5 hours. […] Cells were diluted into fresh medium and induced at 42° C. (pTAK plasmids only—FIG. 12A) or grown in the presence of 500 ng/ml aTc (pIKE plasmids only—FIG. 12B). […] Cells were washed and diluted into fresh medium with no inducers or returned to standard temperature.
In this experiment, a single culture of pTAK117 cells (initially in the low state) was divided into two groups and diluted. The first group was grown in medium with no inducers (squares) while the second group was grown in medium plus 2 mM IPTG (circles). After 6 hours, cells were pelleted, washed once in LB and diluted 1000 fold into fresh medium with no inducer. Both groups of cells were grown for an additional 22 hours while taking samples and diluting into fresh medium every 6-8.5 hours.

[2] = tested on: GFPmut3 expression; assay: Toggle switch induction threshold (steady-state gene expression after 17 hour IPTG induction); type: cell-based, E. coli strain JM2.300; details: 17 hours in 13 different concentrations of IPTG
Description: This was tested experimentally. In this experiment, pTAK117 (initially in the low state) and pTAK102 (as a control) were grown in 13 different concentrations of IPTG for 17 hours, diluting twice (at 6 and 12.5 hours) into fresh medium with the same IPTG concentration. The cells were grown for this length of time in order to ensure that they reached steady-state expression levels. […] Point 1 was taken from separate experiments measuring the high state of pTAK117 with no inducer. Points 3a and 3b are the high and low modes of a bimodally distributed cell population. The bimodality occurred apparently due to natural fluctuations in gene expression and the close proximity of the toggle switch to its bifurcation point. Induction of the pTAK102 control has the familiar sigmoidal shape (triangles). […] This discontinuity is referred to as a saddle-node bifurcation.

[3] = tested on: GFPmut3 expression; assay: Switching time of toggle switch; type: cell-based, E. coli strain JM2.300
Description: In this experiment, pTAK117 cells initially in the low state were diluted in fresh medium and induced with 2 mM IPTG. Separate cultures were grown for 35 minutes to 6 hours before pelleting, washing, and diluting the cells 500 fold in fresh medium with no inducer. Growth was continued until 10.25 hours after the start of the experiment and cells were assayed in the flow cytometer. Conversely, pTAK117 cells initially in the high state were diluted in fresh medium with no inducer. Separate cultures were grown at 41±1° C. for 35 minutes to 6 hours before diluting the cells 500 fold in fresh medium with no inducer. Growth was continued at standard temperature until 10.25 hours after the start of the experiment and cells were assayed in the flow cytometer.
The cell population at four time points is illustrated. As evidenced by the appearance of a bimodal distribution at 4 hours (FIG. 15C), the pTAK117 plasmid began switching to the high state between 3 and 4 hours of IPTG induction. By five hours, the switching was nearly complete. By six hours, the switching was complete (FIGS. 15A and 15C). On the other hand, switching from the high state to the low state was completed in 35 minutes or less (FIG. 15B). In this experiment, the primary determinant of switching time appears to be the rate of destruction of the expressed transcribed repressor protein. […]

[4] = tested on: GFP expression; assay: Flow-cytometer assay of gene expression and promoter strength (GFP expression by plasmids); type: cell-based, E. coli strain JM2.300; details: repressor expressed from Ptrc-2-E; 14,300/2.5
Description: The host cell for all promoter assays and toggle switch experiments was E. coli strain JM2.300 [λ-, lacI22, rpsLl35 (StrR), thi-1] (CGSC strain 5002). JM2.300, which contains few mutations and is a fast growing strain that can tolerate enormous overexpression of plasmid-bound genes. Because JM2.300 contains no λ repressor and carries a non-functional Lac repressor (lacI22), it is considered to be a suitable host for the toggle switch.
All cells were grown in LB medium (Difco) with 100 μg/ml ampicillin plus inducers as indicated in the text. All Type I and pIKE series plasmids were grown at 37±1° C., unless otherwise indicated. All pTAK series plasmids were grown at 32±1° C. except during thermal induction. […]
The following expression data was collected using a Becton-Dickinson FACSCalibur flow cytometer with a 488 nm argon excitation laser and a 515-545 nm emission filter. […] Cells were assayed at low flow rate and fluorescence was calibrated using InSpeck Green fluorescent beads (Molecular Probes). […] All flow data were converted to ASCII format using MFI (E. Martz, University of Massachusetts, Amherst, available at http://marlin.bio.umass.edu/mcbfacs/flowcat.html\##mfi) and analyzed with Matlab (Mathworks).
The strengths, in calibrated fluorescence units, of the promoter/RBS pairs used to construct the toggle switches are listed in Table 6. […]

[5] = target: OL1-OL3; details: λ to OL1-OL3; cited from earlier work
[6] = tested on: hybrid promoter: E. coli LexA operator sequence spliced into the HSV tk promoter; details: mammalian cells that synthesized the repressor; cited from earlier work

Question: For “pTAK117: Class 1 Type IV toggle switch plasmid (SEQ ID NO: 12), PLslcon, RBS1 D, lacI and cIts”, which “long-term stability of the two states” value ([1]; 6 hours with or without 2 mM IPTG, then 22 hours with no inducer) is on record?
Answer: remained in their initial high or low states for the entire 22 hour period

Question: What about the “GFP EXPRESSION (bistable or monostable behaviour)” value (“GFP EXPRESSION” below) [1] of the same molecule?
Answer: Bistable

Question: What about the “shape of IPTG induction curve” value [2] of the same molecule?
Answer: quasi-discontinuous jump to the high state

Question: What about the “IPTG concentration at which toggle exhibits quasi-discontinuous jump to the high expression state” value ([2]; initially in the low state) of the same molecule?
Answer: 40 µM

Question: What about the “switching from low to high state complete” value ([3]; 2 mM IPTG induction) of the same molecule?
Answer: six

Question: What about the “switching from the high state to the low state completed” value ([3]; thermal induction at 41±1° C.) of the same molecule?
Answer: ≤ 35 min

Question: Which “GFP EXPRESSION” value [1] does the source give for “pIKE107: Class 2 Type IV toggle switch plasmid (SEQ ID NO: 17), PLtetO-1, RBS1 C” here?
Answer: Bistable

Question: And the bistability [1]?
Answer: exhibited bistability

Question: For “pTAK132: Class 1 Type IV toggle switch plasmid (SEQ ID NO: 14), PLslcon, RBS1 H”, which “GFP EXPRESSION” value [1] is on record?
Answer: Bistable

Question: With “λ repressor (cI): bacteriophage λ repressor protein that represses the PL promoter” as the molecule, how does the “repression of the PLSlcon-D promoter” value [4] read?
Answer: ~6000 fold

Question: What about the Kd [5] of the same molecule?
Answer: ~1 nM

Question: Which “GFP EXPRESSION” value [1] does the source give for “pTAK130: Class 1 Type IV toggle switch plasmid (SEQ ID NO: 15), PLslcon, RBS1 G” here?
Answer: Bistable

Question: For “pTAK131: Class 1 Type IV toggle switch plasmid (SEQ ID NO: 13), PLslcon, RBS1 F”, which “GFP EXPRESSION” value [1] is on record?
Answer: Bistable

Question: For “pIKE105: Class 2 Type IV toggle plasmid (SEQ ID NO: 16), PLtetO-1, RBS1 A, lacI and tetR”, which “GFP EXPRESSION” value [1] is on record?
Answer: Monostable

Question: What about the bistability [1] of the same molecule?
Answer: did not exhibit bistability

Question: And the “state after removal of IPTG” value ([1]; washed, diluted into fresh medium with no IPTG, additional 5 hours)?
Answer: returned to the low state

B1: E. coli LexA repressor protein: E. coli repressor protein that represses transcription at operator site Olex (protein, UniProt P0A7C2 1-202, looked up)
LexA repressor: MKALTARQQEVFDLIRDHISQTGMPPTRAEIAQRLGFRSPNAAEEHLKALARKGVIEIVSGASRGIRLLQEEEEGLPLVGRVAAGEPLLAQQHIEGHYQVDPSLFKPNADFLLRVSGMSMKDIGIMDGDLLAVHKTQDVRNGQVVVARIDDEVTVKRLKKQGNKVELLPENSEFKPIVVDLRQQSFTIEGLAVGVIRNGDWL
Question: For B1, which “reduction of expression from hybrid LexA operator / HSV tk promoter” value [6] is on record?
Answer: 10 fold
